{"source": "ChEMBL document CHEMBL4321812", "about": "“Structure-based rational design of staurosporine-based fluorescent probe with broad-ranging kinase affinity for kinase panel application” (Bioorg Med Chem Lett, 2019)", "key": {"[1]": {"target": "Serine/threonine-protein kinase 33 (Homo sapiens, UniProt Q9BYT3)", "assay": "Binding affinity to recombinant full-length N-terminal His-FLAG-GST-tagged STK33 (unknown origin) expressed in baculovirus infected Sf9 insect cells incubated for 1 hr by TR-FRET assay"}, "[2]": {"assay": "Binding affinity to recombinant human full-length N-terminal […] MKNK1 T334D mutant expressed in baculovirus expression system using RS peptide as substrate incubated for 1 hr by TR-FRET assay"}, "[3]": {"target": "Serine/threonine-protein kinase 24 (Homo sapiens, UniProt Q9Y6E0)", "assay": "Binding affinity to recombinant full-length N-terminal His-FLAG-tagged STK24 (unknown origin) expressed in baculovirus infected Sf9 insect cells incubated for 1 hr by TR-FRET assay"}, "[4]": {"target": "Non-receptor tyrosine-protein kinase TYK2 (Homo sapiens, UniProt P29597)", "sequence (P29597 whole entry, the tested form may be a part)": "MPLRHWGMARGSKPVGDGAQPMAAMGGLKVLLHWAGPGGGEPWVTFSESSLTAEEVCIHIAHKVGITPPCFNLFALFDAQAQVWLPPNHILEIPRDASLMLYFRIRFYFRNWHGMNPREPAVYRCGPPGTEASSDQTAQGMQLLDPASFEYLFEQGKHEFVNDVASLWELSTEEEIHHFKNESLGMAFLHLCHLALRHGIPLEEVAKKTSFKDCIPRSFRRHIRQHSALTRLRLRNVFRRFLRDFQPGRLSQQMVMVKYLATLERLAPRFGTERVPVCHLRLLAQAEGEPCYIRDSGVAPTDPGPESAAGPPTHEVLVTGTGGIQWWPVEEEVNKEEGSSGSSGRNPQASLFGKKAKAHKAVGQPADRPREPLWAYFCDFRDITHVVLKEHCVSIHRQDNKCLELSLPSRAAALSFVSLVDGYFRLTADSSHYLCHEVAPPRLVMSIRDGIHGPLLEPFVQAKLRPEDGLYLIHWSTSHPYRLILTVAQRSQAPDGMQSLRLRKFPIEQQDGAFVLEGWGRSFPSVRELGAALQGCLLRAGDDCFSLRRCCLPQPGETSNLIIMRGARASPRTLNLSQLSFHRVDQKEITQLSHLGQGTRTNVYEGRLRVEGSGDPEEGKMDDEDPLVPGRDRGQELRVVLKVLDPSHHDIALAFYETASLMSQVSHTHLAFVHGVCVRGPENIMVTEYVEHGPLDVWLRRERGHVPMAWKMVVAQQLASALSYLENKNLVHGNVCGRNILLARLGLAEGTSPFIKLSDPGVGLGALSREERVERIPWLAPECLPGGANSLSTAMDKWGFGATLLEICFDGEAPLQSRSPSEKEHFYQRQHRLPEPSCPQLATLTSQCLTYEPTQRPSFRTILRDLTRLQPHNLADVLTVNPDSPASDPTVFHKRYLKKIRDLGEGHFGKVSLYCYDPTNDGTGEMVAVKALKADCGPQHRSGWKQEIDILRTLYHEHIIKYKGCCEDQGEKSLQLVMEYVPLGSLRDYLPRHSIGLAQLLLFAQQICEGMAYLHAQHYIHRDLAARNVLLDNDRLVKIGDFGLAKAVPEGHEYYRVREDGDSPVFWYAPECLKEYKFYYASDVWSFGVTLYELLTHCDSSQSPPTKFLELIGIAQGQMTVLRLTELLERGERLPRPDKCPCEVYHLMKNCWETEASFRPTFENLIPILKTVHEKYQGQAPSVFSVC", "assay": "Binding affinity to recombinant N-terminal His-FLAG-GST-tagged TYK2 (unknown origin) (871 to 1187 residues) expressed in baculovirus infected Sf9 insect cells incubated for 1 hr by TR-FRET assay"}, "[5]": {"target": "Testis-specific serine/threonine-protein kinase 3 (Homo sapiens, UniProt Q96PN8)", "sequence (Q96PN8 whole entry)": "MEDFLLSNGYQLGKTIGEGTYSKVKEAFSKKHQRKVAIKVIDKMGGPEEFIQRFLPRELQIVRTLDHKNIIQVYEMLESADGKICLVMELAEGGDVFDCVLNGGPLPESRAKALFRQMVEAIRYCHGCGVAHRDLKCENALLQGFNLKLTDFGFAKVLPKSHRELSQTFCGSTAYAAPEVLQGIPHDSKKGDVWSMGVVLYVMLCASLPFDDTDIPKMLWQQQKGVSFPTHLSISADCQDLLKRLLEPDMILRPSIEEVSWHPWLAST", "assay": "Binding affinity to recombinant full-length N-terminal His-FLAG-GST-tagged TSSK3 (unknown origin) expressed in baculovirus infected Sf9 insect cells incubated for 1 hr by TR-FRET assay"}, "[6]": {"target": "Receptor tyrosine-protein kinase erbB-4 (Homo sapiens, UniProt Q15303)", "assay": "Binding affinity to recombinant human full-length N-terminal GST-tagged ERBB4 expressed in baculovirus expression system using srctide as substrate incubated for 1 hr by TR-FRET assay"}, "[7]": {"target": "Protein-tyrosine kinase 2-beta (Homo sapiens, UniProt Q14289)", "sequence (Q14289 whole entry)": "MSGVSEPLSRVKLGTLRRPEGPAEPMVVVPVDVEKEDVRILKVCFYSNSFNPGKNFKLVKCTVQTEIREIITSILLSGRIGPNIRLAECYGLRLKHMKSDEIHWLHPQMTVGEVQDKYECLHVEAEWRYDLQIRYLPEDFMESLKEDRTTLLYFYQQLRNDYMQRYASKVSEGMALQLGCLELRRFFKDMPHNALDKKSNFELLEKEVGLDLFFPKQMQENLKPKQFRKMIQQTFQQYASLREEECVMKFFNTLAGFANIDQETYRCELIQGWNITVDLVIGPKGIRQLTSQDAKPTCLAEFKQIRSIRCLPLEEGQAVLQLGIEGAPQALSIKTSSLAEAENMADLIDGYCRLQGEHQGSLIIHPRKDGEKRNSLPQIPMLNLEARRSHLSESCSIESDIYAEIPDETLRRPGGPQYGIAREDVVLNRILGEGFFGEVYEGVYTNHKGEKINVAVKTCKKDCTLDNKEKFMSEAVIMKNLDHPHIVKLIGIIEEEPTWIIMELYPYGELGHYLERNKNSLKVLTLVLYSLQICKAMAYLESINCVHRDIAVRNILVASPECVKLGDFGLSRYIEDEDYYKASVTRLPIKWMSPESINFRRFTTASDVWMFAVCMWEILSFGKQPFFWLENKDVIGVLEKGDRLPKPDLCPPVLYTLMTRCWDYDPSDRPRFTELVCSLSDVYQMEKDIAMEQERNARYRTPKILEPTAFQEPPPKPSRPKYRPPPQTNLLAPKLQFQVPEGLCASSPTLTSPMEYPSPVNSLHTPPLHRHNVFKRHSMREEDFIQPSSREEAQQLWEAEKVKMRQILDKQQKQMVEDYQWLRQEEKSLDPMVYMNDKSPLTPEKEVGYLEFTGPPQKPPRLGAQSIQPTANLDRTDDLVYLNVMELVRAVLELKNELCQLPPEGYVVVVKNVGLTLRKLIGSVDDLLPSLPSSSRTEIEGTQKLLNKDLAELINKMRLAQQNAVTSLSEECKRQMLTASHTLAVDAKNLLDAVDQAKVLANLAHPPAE", "assay": "Binding affinity to recombinant full-length N-terminal His-FLAG-tagged PTK2B (unknown origin) expressed in baculovirus infected Sf9 insect cells incubated for 1 hr by TR-FRET assay"}, "[8]": {"target": "Serine/threonine-protein kinase ULK2 (Homo sapiens, UniProt Q8IYT8)", "assay": "Binding affinity to recombinant N-terminal His-FLAG-GST-tagged ULK2 (unknown origin) (1 to 478 residues) expressed in baculovirus infected Sf9 insect cells incubated for 1 hr by TR-FRET assay"}, "[9]": {"target": "Ribosomal protein S6 kinase alpha-6 (Homo sapiens, UniProt Q9UK32)", "assay": "Binding affinity to recombinant full-length N-terminal His-FLAG-tagged RPS6KA6 (unknown origin) expressed in baculovirus infected Sf9 insect cells incubated for 1 hr by TR-FRET assay"}, "[10]": {"target": "Tyrosine-protein kinase Lyn (Homo sapiens, UniProt P07948)", "sequence (P07948 whole entry)": "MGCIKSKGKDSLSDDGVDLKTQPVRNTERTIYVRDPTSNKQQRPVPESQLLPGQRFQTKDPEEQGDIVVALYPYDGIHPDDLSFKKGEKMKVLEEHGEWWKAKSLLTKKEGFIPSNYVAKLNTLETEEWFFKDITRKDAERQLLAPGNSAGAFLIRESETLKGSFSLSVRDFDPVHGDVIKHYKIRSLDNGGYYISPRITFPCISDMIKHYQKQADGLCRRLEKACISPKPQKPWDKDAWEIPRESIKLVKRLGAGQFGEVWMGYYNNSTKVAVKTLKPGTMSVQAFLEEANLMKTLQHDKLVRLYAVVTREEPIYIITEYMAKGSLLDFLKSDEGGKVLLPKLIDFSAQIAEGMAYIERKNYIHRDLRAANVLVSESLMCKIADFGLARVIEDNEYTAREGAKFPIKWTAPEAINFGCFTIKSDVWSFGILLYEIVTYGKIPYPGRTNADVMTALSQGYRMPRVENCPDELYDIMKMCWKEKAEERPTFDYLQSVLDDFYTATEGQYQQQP", "assay": "Binding affinity to recombinant full-length N-terminal His-FLAG-GST-tagged LYN (unknown origin) expressed in baculovirus infected Sf9 insect cells incubated for 1 hr by TR-FRET assay"}, "[11]": {"target": "Serine/threonine-protein kinase MARK1 (Homo sapiens, UniProt Q9P0L2)", "assay": "Binding affinity to recombinant full-length N-terminal His-FLAG-tagged MARK1 (unknown origin) expressed in baculovirus infected Sf9 insect cells incubated for 1 hr by TR-FRET assay"}, "[12]": {"target": "Serine/threonine-protein kinase N2 (Homo sapiens, UniProt Q16513)", "assay": "Binding affinity to recombinant full-length N-terminal His-FLAG-GST-tagged PKN2 (unknown origin) expressed in baculovirus infected Sf9 insect cells incubated for 1 hr by TR-FRET assay"}, "[13]": {"target": "Interleukin-1 receptor-associated kinase 1 (Homo sapiens, UniProt P51617)", "assay": "Binding affinity to recombinant N-terminal His-FLAG-GST-tagged IRAK1 (unknown origin) (194 to 712 residues) expressed in baculovirus infected Sf9 insect cells incubated for 1 hr by TR-FRET assay"}, "[14]": {"target": "Serine/threonine-protein kinase PAK 5 (Homo sapiens, UniProt Q9P286)", "sequence (Q9P286 whole entry, the tested form may be a part)": "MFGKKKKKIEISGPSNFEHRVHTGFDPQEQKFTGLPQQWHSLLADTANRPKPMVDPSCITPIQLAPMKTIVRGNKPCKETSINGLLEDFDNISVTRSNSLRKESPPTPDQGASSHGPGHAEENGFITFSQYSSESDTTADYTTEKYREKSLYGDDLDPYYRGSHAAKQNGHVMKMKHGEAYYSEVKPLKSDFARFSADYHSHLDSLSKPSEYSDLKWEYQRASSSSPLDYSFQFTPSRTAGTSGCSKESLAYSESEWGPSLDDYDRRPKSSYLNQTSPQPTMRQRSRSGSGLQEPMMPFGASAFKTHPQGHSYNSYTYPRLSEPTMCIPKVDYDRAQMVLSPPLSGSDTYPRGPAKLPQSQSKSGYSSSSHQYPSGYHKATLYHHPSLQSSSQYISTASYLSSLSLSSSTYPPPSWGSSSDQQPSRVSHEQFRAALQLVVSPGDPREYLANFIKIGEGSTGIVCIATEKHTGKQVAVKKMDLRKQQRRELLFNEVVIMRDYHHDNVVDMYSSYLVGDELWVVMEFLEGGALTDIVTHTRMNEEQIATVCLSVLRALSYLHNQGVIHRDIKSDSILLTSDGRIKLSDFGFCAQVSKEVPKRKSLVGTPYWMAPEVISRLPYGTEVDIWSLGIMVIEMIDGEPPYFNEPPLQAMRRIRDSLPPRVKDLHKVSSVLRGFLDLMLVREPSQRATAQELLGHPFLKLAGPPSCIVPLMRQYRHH", "assay": "Binding affinity to recombinant N-terminal His-FLAG-GST-tagged PAK7 (unknown origin) (425 to 719 residues) expressed in baculovirus infected Sf9 insect cells incubated for 1 hr by TR-FRET assay"}, "Aurora kinase A": {"target": "Aurora kinase A (Homo sapiens, UniProt O14965)", "assay": "Binding affinity to recombinant full-length N-terminal His-FLAG-GST-tagged AURKA (unknown origin) expressed in baculovirus infected Sf9 insect cells incubated for 1 hr by TR-FRET assay"}, "[15]": {"target": "Calcium/calmodulin-dependent protein kinase kinase 2 (Homo sapiens, UniProt Q96RR4)", "assay": "Binding affinity to recombinant full-length N-terminal His-FLAG-GST-tagged CAMKK2 (unknown origin) expressed in baculovirus infected Sf9 insect cells incubated for 1 hr in presence of calmodulin by TR-FRET assay"}, "[16]": {"target": "Serine/threonine-protein kinase 4 (Homo sapiens, UniProt Q13043)", "assay": "Binding affinity to recombinant full-length N-terminal His-FLAG-GST-tagged STK4 (unknown origin) expressed in baculovirus infected Sf9 insect cells incubated for 1 hr by TR-FRET assay"}, "[17]": {"target": "cAMP-dependent protein kinase catalytic subunit alpha (Homo sapiens, UniProt P17612)", "assay": "Binding affinity to recombinant human full length N-terminal GST-tagged PRKACA expressed in baculovirus expression system using kemptide as substrate incubated for 1 hr by TR-FRET assay"}, "[18]": {"target": "Serine/threonine-protein kinase 32B (Homo sapiens, UniProt Q9NY57)", "sequence (Q9NY57 whole entry)": "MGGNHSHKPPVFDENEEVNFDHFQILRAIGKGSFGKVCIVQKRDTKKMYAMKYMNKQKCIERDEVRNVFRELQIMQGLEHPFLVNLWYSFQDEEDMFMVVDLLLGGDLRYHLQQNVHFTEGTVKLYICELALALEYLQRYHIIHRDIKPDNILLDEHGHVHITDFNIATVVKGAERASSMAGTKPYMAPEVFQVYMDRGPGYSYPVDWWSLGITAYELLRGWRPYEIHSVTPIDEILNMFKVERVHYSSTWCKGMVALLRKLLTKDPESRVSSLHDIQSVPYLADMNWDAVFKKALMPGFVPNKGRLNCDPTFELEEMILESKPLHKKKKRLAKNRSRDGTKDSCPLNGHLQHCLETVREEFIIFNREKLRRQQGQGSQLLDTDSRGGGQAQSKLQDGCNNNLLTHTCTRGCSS", "assay": "Binding affinity to recombinant full-length N-terminal His-FLAG-GST-tagged STK32B (unknown origin) expressed in baculovirus infected Sf9 insect cells incubated for 1 hr by TR-FRET assay"}, "[19]": {"target": "Serine/threonine-protein kinase D2 (Homo sapiens, UniProt Q9BZL6)", "assay": "Binding affinity to recombinant full-length N-terminal His-FLAG-tagged PRKD2 (unknown origin) expressed in baculovirus infected Sf9 insect cells incubated for 1 hr by TR-FRET assay"}, "[20]": {"target": "cAMP-dependent protein kinase catalytic subunit gamma (Homo sapiens, UniProt P22612)", "assay": "Binding affinity to recombinant full-length N-terminal His-FLAG-GST-tagged PRKACG (unknown origin) expressed in baculovirus infected Sf9 insect cells incubated for 1 hr by TR-FRET assay"}, "[21]": {"target": "Testis-specific serine/threonine-protein kinase 1 (Homo sapiens, UniProt Q9BXA7)", "assay": "Binding affinity to recombinant full-length N-terminal His-FLAG-GST-tagged TSSK1B (unknown origin) expressed in baculovirus infected Sf9 insect cells incubated for 1 hr by TR-FRET assay"}, "[22]": {"target": "Non-receptor tyrosine-protein kinase TNK1 (Homo sapiens, UniProt Q13470)", "assay": "Binding affinity to recombinant human N-terminal GST-tagged TNK1 (106 to 390 residues) expressed in baculovirus expression system using CSKtide as substrate incubated for 1 hr by TR-FRET assay"}, "[23]": {"target": "Serine/threonine-protein kinase SIK1 (Homo sapiens, UniProt P57059)", "sequence (P57059 whole entry)": "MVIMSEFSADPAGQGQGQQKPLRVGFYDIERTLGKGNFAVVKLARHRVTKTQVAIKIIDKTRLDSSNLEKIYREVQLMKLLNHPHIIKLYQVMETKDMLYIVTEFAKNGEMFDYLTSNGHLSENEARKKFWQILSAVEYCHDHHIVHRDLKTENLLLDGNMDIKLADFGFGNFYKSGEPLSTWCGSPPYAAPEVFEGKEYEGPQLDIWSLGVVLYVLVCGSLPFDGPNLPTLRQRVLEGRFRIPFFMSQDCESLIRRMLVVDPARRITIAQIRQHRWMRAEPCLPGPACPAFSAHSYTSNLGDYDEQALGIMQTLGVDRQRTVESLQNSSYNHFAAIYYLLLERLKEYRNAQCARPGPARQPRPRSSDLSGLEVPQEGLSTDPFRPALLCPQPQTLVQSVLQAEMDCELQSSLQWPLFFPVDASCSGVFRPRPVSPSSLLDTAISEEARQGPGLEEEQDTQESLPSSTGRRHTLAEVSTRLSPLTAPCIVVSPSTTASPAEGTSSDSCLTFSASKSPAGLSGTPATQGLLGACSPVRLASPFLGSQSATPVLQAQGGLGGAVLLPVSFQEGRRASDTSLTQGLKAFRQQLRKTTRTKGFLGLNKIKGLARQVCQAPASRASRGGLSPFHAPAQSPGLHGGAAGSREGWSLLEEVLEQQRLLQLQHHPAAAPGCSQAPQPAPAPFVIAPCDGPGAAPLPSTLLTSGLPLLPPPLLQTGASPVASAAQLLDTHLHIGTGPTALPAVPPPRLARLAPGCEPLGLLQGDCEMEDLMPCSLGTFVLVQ", "assay": "Binding affinity to recombinant full-length N-terminal His-FLAG-tagged SIK1 (unknown origin) expressed in baculovirus infected Sf9 insect cells incubated for 1 hr by TR-FRET assay"}, "[24]": {"target": "Mitogen-activated protein kinase 15 (Homo sapiens, UniProt Q8TD08)", "assay": "Binding affinity to recombinant full-length N-terminal His-FLAG-GST-tagged MAPK15 (unknown origin) expressed in baculovirus infected Sf9 insect cells incubated for 1 hr by TR-FRET assay"}}, "note": "pKd: −log10 of the molar value."}
{"smiles": "CO[C@@H]1[C@H](NCCOCCOCCOCCNC(=O)CCC2=[N+]3C(=Cc4c(C)cc(C)n4[B-]3(F)F)C=C2)C[C@H]2O[C@]1(C)n1c3ccccc3c3c4c(c5c6ccccc6n2c5c31)C(=O)NC4", "values": [{"measurement": "pKd", "setting": "[1]", "result": 8.10}, {"measurement": "pKd", "setting": "[2]", "result": 7.55}, {"measurement": "pKd", "setting": "[3]", "result": 6.36}, {"measurement": "pKd", "setting": "[4]", "result": 8.10}, {"measurement": "pKd", "setting": "[5]", "result": 6.42}, {"measurement": "pKd", "setting": "[6]", "result": 6.30}, {"measurement": "pKd", "setting": "[7]", "result": 7.23}, {"measurement": "pKd", "setting": "[8]", "result": 7.52}, {"measurement": "pKd", "setting": "[9]", "result": 7.68}, {"measurement": "pKd", "setting": "[10]", "result": 7.20}, {"measurement": "pKd", "setting": "[11]", "result": 8.05}, {"measurement": "pKd", "setting": "[12]", "result": 8.22}, {"measurement": "pKd", "setting": "[13]", "result": 6.52}, {"measurement": "pKd", "setting": "[14]", "result": 7.40}, {"measurement": "pKd", "setting": "Aurora kinase A", "result": 7.35}, {"measurement": "pKd", "setting": "[15]", "result": 8.70}, {"measurement": "pKd", "setting": "[16]", "result": 8.15}, {"measurement": "pKd", "setting": "[17]", "result": 6.94}, {"measurement": "pKd", "setting": "[18]", "result": 6.35}, {"measurement": "pKd", "setting": "[19]", "result": 7.10}, {"measurement": "pKd", "setting": "[20]", "result": 6.83}, {"measurement": "pKd", "setting": "[21]", "result": 7.74}, {"measurement": "pKd", "setting": "[22]", "result": 8.40}, {"measurement": "pKd", "setting": "[23]", "result": 8.52}, {"measurement": "pKd", "setting": "[24]", "result": 6.95}]}
{"smiles": "CO[C@@H]1[C@H](N(C)CCOCCOCCOCCNC(=O)CCC2=[N+]3C(=Cc4c(C)cc(C)n4[B-]3(F)F)C=C2)C[C@H]2O[C@]1(C)n1c3ccccc3c3c4c(c5c6ccccc6n2c5c31)C(=O)NC4", "values": [{"measurement": "pKd", "setting": "[1]", "result": 8.22}, {"measurement": "pKd", "setting": "[2]", "result": 7.43}, {"measurement": "pKd", "setting": "[3]", "result": 6.12}, {"measurement": "pKd", "setting": "[4]", "result": 7.31}, {"measurement": "pKd", "setting": "[5]", "result": 6.48}, {"measurement": "pKd", "setting": "[6]", "result": 6.10}, {"measurement": "pKd", "setting": "[7]", "result": 7.14}, {"measurement": "pKd", "setting": "[8]", "result": 7.21}, {"measurement": "pKd", "setting": "[9]", "result": 7.85}, {"measurement": "pKd", "setting": "[10]", "result": 6.94}, {"measurement": "pKd", "setting": "[11]", "result": 8.52}, {"measurement": "pKd", "setting": "[12]", "result": 8.40}, {"measurement": "pKd", "setting": "[13]", "result": 6.22}, {"measurement": "pKd", "setting": "[14]", "result": 7.28}, {"measurement": "pKd", "setting": "Aurora kinase A", "result": 7.29}, {"measurement": "pKd", "setting": "[15]", "result": 8.22}, {"measurement": "pKd", "setting": "[16]", "result": 8.40}, {"measurement": "pKd", "setting": "[17]", "result": 7.38}, {"measurement": "pKd", "setting": "[18]", "result": 6.01}, {"measurement": "pKd", "setting": "[19]", "result": 6.85}, {"measurement": "pKd", "setting": "[20]", "result": 6.81}, {"measurement": "pKd", "setting": "[21]", "result": 7.72}, {"measurement": "pKd", "setting": "[22]", "result": 7.89}, {"measurement": "pKd", "setting": "[23]", "result": 8.52}, {"measurement": "pKd", "setting": "[24]", "result": 6.51}]}
